Drawing on publication PMC2772868 (Biochemistry, 2009), this text covers EC50 and Kd for two molecules.

Data set [1] concerns the target LacI (lactose repressor protein) (Escherichia coli, UniProt P03023). The class given is binding.
The next data set addresses LacI wild-type (Escherichia coli, UniProt P03023 1-360). The data set is described as follows: filter binding.

LacI (lactose repressor protein), sequence (P03023 whole entry): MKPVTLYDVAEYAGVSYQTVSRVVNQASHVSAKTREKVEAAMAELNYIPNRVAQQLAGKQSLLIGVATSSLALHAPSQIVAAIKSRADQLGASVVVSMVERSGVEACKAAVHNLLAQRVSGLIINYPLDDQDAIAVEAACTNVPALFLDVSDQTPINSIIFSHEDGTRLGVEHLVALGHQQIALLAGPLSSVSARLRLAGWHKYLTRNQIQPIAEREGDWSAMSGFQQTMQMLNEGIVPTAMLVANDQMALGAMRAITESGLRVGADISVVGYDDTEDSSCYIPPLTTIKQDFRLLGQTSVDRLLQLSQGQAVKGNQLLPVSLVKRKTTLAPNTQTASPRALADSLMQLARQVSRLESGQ
LacI wild-type, sequence (P03023 whole entry): as above

`CC(C)S[C@@H]1O[C@H](CO)[C@H](O)[C@H](O)[C@H]1O` [IPTG, isopropyl-β-D-thiogalactoside]: the EC50 (as a rule, the concentration giving half of the maximal effect) in data set [1] worked out at 2200 nM.

B1: 40-bp natural lac operator (dsDNA)
DNA 1: TGTTGTGTGGAATTGTGAGCGGATAACAATTTCACACAGG
DNA 2: CCTGTGTGAAATTGTTATCCGCTCACAATTCCACACAACA
Consider B1, for which the equilibrium dissociation constant (Kd) (in general, the concentration at which binding is half-saturated) with LacI wild-type was found to be 0.022 ± 0.002 nM.
